One may read the IC50 as the midpoint of a concentration-inhibition curve.

This is an account of results in patent US9242977B2, “Trk-inhibiting compound” (ONO PHARMACEUTICAL CO., LTD., priority 2012, dated 2016).

For assay [1], the target named is T1, TrkA (Homo sapiens (Human), UniProt P04629). Nature of the assay: Measurement of TrkA enzyme-inhibiting activity (LanthaScreen TR-FRET kinase assay). The assay is classed as biochemical. Conditions: final ATP 150 μM, read-out: TrkA inhibitory activity (IC50; μM). Here is the method: TrkA-inhibiting activity was measured according to the following method using LanthaScreen™ kinase assay reagents (Invitrogen; Fluorescein-Poly GT, LanthaScreen™ Tb-PY20 and TR-FRET Dilution Buffer), TrkA (Invitrogen), ATP (Sigma-Aldrich), a kinase reaction buffer (50 mM HEPES buffer (Sigma-Aldrich) (pH 7.5) containing 0.01% Brij35 (Sigma-Aldrich), 10 mM MgCl2 (Sigma-Aldrich) and 1 mM EGTA (Sigma-Aldrich)) and 0.5 M EDTA (pH 8.0) (Invitrogen).
The present compound was dissolved in dimethylsulfoxide (hereinafter abbreviated as DMSO) to prepare a 10 mM solution. The test compound at 10 mM was distributed into a 96-well plate and serially diluted with DMSO with the geometrical ratio of 3. The serial dilutions (DMSO solutions) were diluted with the kinase reaction buffer to 20-fold to prepare solutions of the present compound with 5-times concentrations (DMSO concentration: 5%). TrkA was diluted with the kinase reaction buffer to prepare a solution at 38.5 ng/mL (enzyme solution). Adenosine triphosphate (hereinafter abbreviated as ATP) was preliminarily diluted in distilled water to prepare a 10 mM solution which was then divided into containers and stored at −20° C. The 10 mM ATP solution and Fluorescein-Poly GT were diluted in the kinase reaction buffer to prepare a solution containing […] of ATP and 500 nM of Fluorescein-Poly GT (ATP-substrate solution). EDTA (0.5 M; pH 8.0) and LanthaScreen™ Tb-PY20 were diluted in the TR-FRET Dilution Buffer to prepare a solution containing 20 mM of EDTA and 4 nM of LanthaScreen™ Tb-PY20 (detection buffer).
The solutions of the present compound (5 μL/well) and the enzyme solution (10 μL/well) were added to a 96-half well assay plate and the plate was shaken at room temperature for 10 minutes on a plate shaker (IKA™ MTS2/4 digital microplate, IKA Japan K.K.). As a control and a blank, the kinase reaction buffer containing 5% DMSO (5 μL/well) was added in place of the solution of the present compound. As a blank, the kinase reaction buffer (10 μL/well) was added in the place of the enzyme solution. The ATP-substrate solution (10 μL/well) was then added to the plate to initiate kinase reaction and the plate was shaken in the dark at room temperature for 1 hour on the plate shaker (final concentration of TrkA: 15.4 ng/mL, final concentration of the substrate: 200 nM and final concentration of ATP: 150 μM). Kinase reaction was terminated by adding the detection buffer (25 μL/well) to the plate and the plate was shaken in the dark at room temperature for 30 minutes on the plate shaker. On an Analyst GT (Molecular Devices Japan, K.K.) the wells were irradiated with excitation light at 340 nm and the fluorescence intensities at 520 nm and 495 nm were measured. The fluorescence intensity at 520 nm for each well was divided by the fluorescence intensity at 495 nm to calculate the time resolved fluorescence resonance energy transfer (TR-FRET) ratio.
The inhibition rate (%) of the present compound was calculated according to the following Equation 1: Inhibition rate (%)={1−(AX−AB)/(AC−AB)×100 Equation 1
wherein AX: the TR-FRET ratio when the present compound is added;
AB: the TR-FRET of the blank; and
AC: the TR-FRET of the control.
The value for 50% inhibition by the present compound (IC50 value) was calculated from the inhibition curve based on the inhibition rate of the present compound at respective concentrations.

Assay [2] deals with T1, TrkA. The experiment in a line: TrkA kinase-inhibiting activity using human TrkA expressing cells (CellSenser TrkA-NFAT-bla CHO-K1, NGF-stimulated reporter assay). The assay is classed as cell-based. The note with it: CHO-K1 cells expressing human TrkA and NFAT-bla; NGF 50 ng/ml; read-out: TrkA inhibitory activity (IC50; μM). As to the method:
TrkA kinase-inhibiting activity in cell systems was measured using CHO-K1 cells expressing human TrkA and NFAT-bla (CellSenser™ TrkA-NFAT-bla CHO-K1 cells, Invitrogen).
On the day before the assay, CellSenser™ TrkA-NFAT-bla CHO-K1 cells were suspended in an assay medium (Opti-MEM1 Reduced Serum Medium (Invitrogen) containing 0.5% dialysed fetal bovine serum (Invitrogen), 0.1 mM nonessential amino acids (Invitrogen), 1 mM sodium pyruvate (Invitrogen) and antibiotics (100 U/mL penicillin and 100 μg/mL streptomycin (Invitrogen)) and plated at a density of 2.4×10^4 cells/40 μL/well in a 96-well clear bottom plate (Corning, Catalogue No.: 3882). In some wells were added only the assay medium at 40 μL/well (Cell-free). On the day of the assay, 10 mM of the present compound (DMSO solution) was distributed in a 96-well plate (Costar, Catalogue No.: 3363) and serially diluted with DMSO with the geometrical ratio of 3. The serial dilutions were diluted with the assay medium to 100-fold to prepare a solution of the present compound with a 10-times concentration (DMSO concentration: 1%). To the plate where cells were plated was added the present compound at 5 μL/well and the plate was incubated in a CO2 incubator with 5% CO2, 95% Air at 37° C. for 30 minutes. For a control and a blank, the assay medium containing 1% DMSO was added at 5 μL/well in place of the solution of the present compound. Subsequently the assay medium containing NGF (Mouse 2.5s, Natural, Invitrogen) was added to the plate at 5 µL/well (final concentration of NGF: 50 ng/ml) and the plate was incubated in a CO2 incubator with 5% CO2, 95% Air at 37° C. for 5 hours. For a group of blanks, the assay medium was added in place of NGF at 5 μL/well. A reporter assay detection reagent (10 μL/well) was added to the plate and the plate was then incubated in the dark at room temperature for 120 minutes. The reporter assay detection reagent was prepared from LiveBLAzer™-FRET B/G Loading Kit (Invitrogen). On an Analyst GT (Molecular Devices Japan, K.K.) the wells were irradiated with excitation light at 405 nm and the fluorescence intensities at 460 nm and 530 nm were measured. The time resolved fluorescence resonance energy transfer (TR-FRET) ratio of each well was calculated according to the following Equation 2. TR-FRET Ratio=(A460X−A460F)/(A530X−A530F) Equation 2
wherein A460X: the fluorescence intensity at 460 nm of the present compound, control or blank;
A460F: the fluorescence intensity at 460 nm of the Cell-free;
A530X: the fluorescence intensity at 530 nm of the present compound, control or blank; and
A530F: the fluorescence intensity at 530 nm of the Cell-free. […]
The IC50 value of the present compound was calculated from the inhibition curve based on the inhibition rate of the present compound at respective concentrations.
On the technique in general: A reporter such as luciferase makes a cellular process visible.

T1 sequence (P04629 33-796): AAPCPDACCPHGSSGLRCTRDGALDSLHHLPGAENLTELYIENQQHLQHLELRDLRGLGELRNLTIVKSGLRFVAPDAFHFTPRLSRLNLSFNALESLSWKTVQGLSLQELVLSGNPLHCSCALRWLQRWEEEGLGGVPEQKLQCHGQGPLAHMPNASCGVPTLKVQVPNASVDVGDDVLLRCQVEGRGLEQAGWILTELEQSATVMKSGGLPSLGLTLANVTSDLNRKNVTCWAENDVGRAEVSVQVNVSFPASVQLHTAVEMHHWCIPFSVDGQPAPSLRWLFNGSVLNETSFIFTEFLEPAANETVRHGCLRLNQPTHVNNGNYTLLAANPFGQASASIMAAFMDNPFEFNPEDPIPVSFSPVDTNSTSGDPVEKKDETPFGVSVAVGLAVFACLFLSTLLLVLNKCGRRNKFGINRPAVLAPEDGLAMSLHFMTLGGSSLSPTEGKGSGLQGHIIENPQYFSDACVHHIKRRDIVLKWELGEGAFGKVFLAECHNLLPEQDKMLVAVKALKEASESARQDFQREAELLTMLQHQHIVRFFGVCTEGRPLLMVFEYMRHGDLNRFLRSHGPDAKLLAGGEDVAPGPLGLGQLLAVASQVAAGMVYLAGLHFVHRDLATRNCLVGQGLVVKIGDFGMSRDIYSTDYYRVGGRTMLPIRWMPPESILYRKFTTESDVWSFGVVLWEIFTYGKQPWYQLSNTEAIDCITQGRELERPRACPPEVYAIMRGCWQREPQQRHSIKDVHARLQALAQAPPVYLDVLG

On to `CC(C)c1ncc(C(F)(F)F)cc1NC(=O)Nc1cnc(Oc2ccc(-c3cnc(N4CCCC4=O)s3)cc2)nc1` [Example 84-41, 1-[2-isopropyl-5-(trifluoromethyl)-3-pyridinyl]-3-(2-{4-[2-(2-oxo-1-pyrrolidinyl)-1,3-thiazol-5-yl]phenoxy}-5-pyrimidinyl)urea], for which the IC50 at TrkA [1] is 0.09 µM.

On to `Cc1ccc(-n2nc(C(C)(C)C)cc2NC(=O)Nc2cnc(Oc3ccc(-c4cnc(N5CCCC5=O)s4)cc3)nc2)cc1C` [Example 65-1, 1-[1-(3,4-dimethylphenyl)-3-(2-methyl-2-propanyl)-1H-pyrazol-5-yl]-3-(2-{4-[2-(2-oxo-1-pyrrolidinyl)-1,3-thiazol-5-yl]phenoxy}-5-pyrimidinyl)urea], for which the IC50 on TrkA [2] was 0.002 µM; at TrkA [1] it was 0.08 µM.

Take `CC(C)(C)c1cc(NC(=O)Nc2cnc(Oc3ccc(-c4cnc(N5CCCC5=O)s4)cc3)nc2)n(C2CCOCC2)n1` [Example 80-2, 1-[3-(2-methyl-2-propanyl)-1-(tetrahydro-2 H-pyran-4-yl)-1H-pyrazol-5-yl]-3-(2-{4-[2-(2-oxo-1-pyrrolidinyl)-1,3-thiazol-5-yl]phenoxy}-5-pyrimidinyl)urea]: the IC50 at TrkA [1] is 0.07 µM.

Regarding `Cc1ccccc1-n1nc(C(C)(F)F)cc1NC(=O)Nc1cnc(Oc2ccc(-c3cnc(N4CCCC4=O)s3)cc2)nc1` [Example 72-3, 1-[3-(1,1-difluoroethyl)-1-(2-methylphenyl)-1H-pyrazol-5-yl]-3-(2-{4-[2-(2-oxo-1-pyrrolidinyl)-1,3-thiazol-5-yl]phenoxy}-5-pyrimidinyl)urea], the IC50 worked out at 0.018 µM on TrkA [2] and 0.06 µM on TrkA [1].

`O=C(Nc1cnc(Oc2ccc(-c3cnc(N4CCCC4=O)s3)cc2)nc1)Nc1cc(C(F)(F)F)cnc1-c1ccc(C(F)(F)F)nc1` [Example 50, 1-[5,6′-bis(trifluoromethyl)-2,3′-bipyridin-3-yl]-3-(2-{4-[2-(2-oxo-1-pyrrolidinyl)-1,3-thiazol-5-yl]phenoxy}-5-pyrimidinyl)urea]: the 50% inhibitory concentration (IC50) at TrkA [2] amounted to 0.012 µM; on TrkA [1], 0.04 µM.

Consider `Cn1ncc2cc(-n3nc(C(C)(C)C)cc3NC(=O)Nc3cnc(Oc4ccc(-c5cnc(N6CCCC6=O)s5)cc4)nc3)ccc21` [Example 71, 1-[1-(1-methyl-1H-indazol-5-yl)-3-(2-methyl-2-propanyl)-1H-pyrazol-5-yl]-3-(2-{4-[2-(2-oxo-1-pyrrolidinyl)-1,3-thiazol-5-yl]phenoxy}-5-pyrimidinyl)urea], for which the IC50 was 0.002 µM at TrkA [2] and 0.03 µM at TrkA [1].

On to `COC(=O)c1cccc(-n2nc(C(C)(C)C)cc2NC(=O)Nc2cnc(Oc3ccc(-c4cnc(N5CCCC5=O)s4)cc3)nc2)c1` [Example 66-27, Methyl 3-[3-(2-methyl-2-propanyl)-5-{[(2-{4-[2-(2-oxo-1-pyrrolidinyl)-1,3-thiazol-5-yl]phenoxy}-5-pyrimidinyl)carbamoyl]amino}-1H-pyrazol-1-yl]benzoate], for which the IC50 amounted to 0.01 µM at TrkA [2] and 0.13 µM on TrkA [1].

As to `Cc1ccccc1-n1nc(C(F)(F)F)cc1NC(=O)Nc1cnc(Oc2ccc(-c3cnc(N4CCCC4=O)s3)cc2)nc1` [Example 72-1, 1-[1-(2-methylphenyl)-3-(trifluoromethyl)-1H-pyrazol-5-yl]-3-(2-{4-[2-(2-oxo-1-pyrrolidinyl)-1,3-thiazol-5-yl]phenoxy}-5-pyrimidinyl)urea], the IC50 was determined as 0.011 µM on TrkA [2] and 0.05 µM on TrkA [1].

For `CC(C)(C)c1cc(NC(=O)Nc2cnc(Oc3ccc(-c4cnc(N5CCCC5=O)s4)cc3)nc2)n(-c2ccc(S(N)(=O)=O)cc2)n1` [Example 66-72, 4-[3-(2-methyl-2-propanyl)-5-{[(2-{4-[2-(2-oxo-1-pyrrolidinyl)-1,3-thiazol-5-yl]phenoxy}-5-pyrimidinyl)carbamoyl]amino}-1H-pyrazol-1-yl]benzenesulfonamide], the IC50 is 0.032 µM at TrkA [2] and 0.05 µM at TrkA [1].

With `CC(=O)Nc1ccc(-n2nc(C(C)(C)C)cc2NC(=O)Nc2cnc(Oc3ccc(-c4cnc(N5CCCC5=O)s4)cc3)nc2)cc1` [Example 66-28, N-{4-[3-(2-methyl-2-propanyl)-5-{[(2-{4-[2-(2-oxo-1-pyrrolidinyl)-1,3-thiazol-5-yl]phenoxy}-5-pyrimidinyl)carbamoyl]amino}-1H-pyrazol-1-yl]phenyl}acetamide], the IC50 on TrkA [2] was 0.014 µM; at TrkA [1], 0.08 µM.

Consider `Cc1ccc(-c2ncc(C(F)(F)F)cc2NC(=O)Nc2cnc(Oc3ccc(-c4cnc(N5CCCCCC5=O)s4)cc3)nc2)cc1C` [Example 59, 1-[2-(3,4-dimethylphenyl)-5-(trifluoromethyl)-3-pyridinyl]-3-(2-{4-[2-(2-oxo-1-azepanyl)-1,3-thiazol-5-yl]phenoxy}-5-pyrimidinyl)urea], for which the figures for the half-inhibitory concentration (IC50) at TrkA [2] and on TrkA [1] were 0.07 µM and 0.19 µM, respectively.

As to `O=C(Nc1cnc(Oc2ccc(-c3cnc(N4CCCC4=O)s3)cc2)nc1)Nc1cc(C2CC2)nn1-c1ccccc1` [Example 72-7, 1-(3-cyclopropyl-1-phenyl-1H-pyrazol-5-yl)-3-(2-{4-[2-(2-oxo-1-pyrrolidinyl)-1,3-thiazol-5-yl]phenoxy}-5-pyrimidinyl)urea], the IC50 on TrkA [2] was found to be 0.033 µM; on TrkA [1], 0.03 µM.

Take `O=C(Nc1cnc(Oc2ccc(-c3cnc(N4CCCCC4=O)s3)cc2)nc1)Nc1cc(C(F)(F)F)cnc1-c1ccc(C(F)(F)F)nc1` [Example 9, 1-[5,6′-bis(trifluoromethyl)-2,3′-bipyridin-3-yl]-3-(2-{4-[2-(2-oxo-1-piperidinyl)-1,3-thiazol-5-yl]phenoxy}-5-pyrimidinyl)urea]: the figures for the IC50 on TrkA [2] and at TrkA [1] were 0.093 µM and 0.16 µM, respectively.
